In patent US20230242526A1 (Zentaur Therapeutics International Limited, priority 2020, published 2023):

Key:
in vitro [1] = conditions: human, microsomes, pH 7.4, t1/2 human
Protocol: (§1) Human liver microsomes (cat. No. 452161), mouse liver microsomes (cat. No. 452701), were purchased from Corning.
(§2) Samples were analyzed using LC-MS/MS using a SCIEX API 4000 mass spectrometer coupled with Agilent HPLC analytical system. After separation on a ZORBAX XDB-C18 column (5 μm, 50×2.1 mm, column No. 50-282) using an acetonitrile-water gradient system, peaks were analyzed by mass spectroscopy (MS) using ESI ionization in Q1 and Q3 scan mode.
(§3) The LC and MS are all controlled by Analyst software.
(§4) The liver microsomes were incubated with 1.0 μM of the testing compound at 37° C. The incubation mixture contained 100 mM PBS buffer (pH=7.4), 3 mM MgCl2 and 1 mM NADPH. The concentration of liver microsome in the incubation mixture was 0.5 mg/mL for testing compound, and 0.2 mg/mL for MDZ and the total volume is 0.2 mL. […] Aliquots were withdrawn at time points of 0 min, 5 min and 20 min for MDZ. The reactions were terminated by transferring the aliquots to a methanol solution containing the internal standard […] for analytical quantification. The quenched samples were analyzed by LC-MS/MS. The incubations were carried out in duplicates. The metabolic stability of the testing compounds by the liver microsomes of human and mice is expressed as elimination half-life (t1/2). The results are shown as the means of duplicate determinations±SD.

[2] = test system: human breast squamous HCC1806 cell line; assay: CyQUANT Direct cell proliferation assay, HCC1806; format: cell-based; conditions: HCC1806, 168 h, 7 days
From the text: (§5) The human ovarian carcinoma OVCAR3 cell line (ATCC HTB-161™) or human breast squamous HCC1806 cell line (ATCC CRL 2335) were obtained from American Type Culture Collection (ATCC), and maintained in culture media according to the supplier's specification.
(§6) The CyQUANT® Direct Cell Proliferation Assay Kit (Invitrogen™, catalog No. G35012) was utilized to test the inhibitory activities of the CDK2 inhibitors described in this disclosure against OVCAR3 or HCC1806 tumor cells.
(§7) CyQUANT® Direct Cell Proliferation Assay: The spent medium from the purchased tumor cell culture plate was removed and the tumor cells were washed with PBS buffer twice. Trypsin (VWR catalog No. 0458-25G) was added to digest the tumor cells until tumor cells appeared round shaped and to dissociate adherent cells from the plate wall in which they are being cultured. Then RPMI-1640 media (HCC1806, Gibco™ catalog No, A10491-01) with 10% fetal bovine serum (FBS) (Hyclone™ catalog No. SV30160.03), or RPMI-1640 media (OVCAR-3, Gibco™ catalog No. 10370-021) with 20% FBS and 0.01 mg/mL insulin was added to stop the trypsin digestion reaction. The tumor cells were lightly agitated with a liquid transfer pipette to cause tumor cells suspended in the culture media. The cells were counted. The complete medium was used to prepare tumor cell suspension.
(§8) OVCAR3 or HCC1806 cells were seeded at 40 μL/well in 384-well plates in growth media containing FBS and cultured 24 hours in the incubator at 37° C., 5% CO2. […] Compound solutions were added by Agilent Bravo liquid handler. […] The control wells contained the growth medium having 0.1% DMSO. Cells were incubated at 37° C., 5% CO2 for 7 days.
(§9) CYQUANT Direct Cell Proliferation Assay (Molecular Probes, Eugene, Oreg.) was then performed following manufacturer's instructions to prepare the detection reagents. 50 μL of detection reagent was aliquot and added to each well and the cells were incubated at 37° C. for 1 hr.
(§10) The cell culture plates were placed on TECAN M1000 microplate reader to detect the fluorescence intensity at 508 nm excitation and 527 nm emission wavelengths. Graphpad Prism 6.0 software was used for data processing, preparing cell growth curve, calculating percentage inhibition on cell growth. IC50 values were calculated by concentration-response curve fitting utilizing a four-parameter analytical method using GraphPad Prism software.

in vitro [3] = conditions: mouse, microsomes, pH 7.4, t1/2 mouse
Protocol: as §1, §2, §3, §4

[4] = test system: human ovarian carcinoma OVCAR3 cell line; assay: CyQUANT Direct cell proliferation assay, OVCAR-3; format: cell-based; conditions: OVCAR-3, 168 h, 7 days
From the text: as §5, §6, §7, §8, §9, §10

CDK9/Cyclin T1 = CDK9/Cyclin T1 (Homo sapiens, UniProt P50750); assay: CDK9/Cyclin T1 kinase assay; format: biochemical
Protocol: (1). Recombinant enzymes CDK1, CDK2, CDK4, CDK6, CDK9, cyclin B1, cyclin A2, cyclin D3, cyclin E1, cyclin T1 were cloned and purified at Wuxi Biortus Biochemistry Co. Ltd.
(8) Peptide substrate-CDK9 (Ahx-GSRTPMY-NH2, Scilight-Peptide, Cat. C0769102).
The test compounds were dissolved and diluted in DMSO. A stock DMSO solution of the test compound of the invention was prepared by dissolving the compound in DMSO to form a 10 mM solution.
2 μL of testing compound solutions and 5 μL of enzyme solution were added into the 384-well microplate followed by a 10 minute incubation. The reaction was then initiated by the addition of 5 μL of peptide substrate and ATP mixture solution and incubated at 27° C. for 30 minutes. The enzyme reaction in each well was terminated by adding 4 μL of 120 mM EDTA solution. Each assay was carried out in duplicates.
DMSO was used as negative control (0%) for enzyme activity. 20 μM Staurosporine was used as positive control (100%) for enzyme activity.
Plates were read for fluorescence on a Caliper EZ Reader II by separating the fluorescent labeled substrate from the enzyme phosphorylation product by electrophoresis. Data were collected and analyzed using GraphPad Prism version 6.0 software.
Dose-response curves were plotted from inhibition data generated, each in duplicate, from 10 point serial dilutions of inhibitory compounds. Concentration of compound was plotted against % kinase activity. To generate IC50 values, the dose-response curves were then fitted to a standard sigmoidal curve and IC50 values were derived by nonlinear regression analysis.

Sequence of CDK9/Cyclin T1 (P50750 whole entry): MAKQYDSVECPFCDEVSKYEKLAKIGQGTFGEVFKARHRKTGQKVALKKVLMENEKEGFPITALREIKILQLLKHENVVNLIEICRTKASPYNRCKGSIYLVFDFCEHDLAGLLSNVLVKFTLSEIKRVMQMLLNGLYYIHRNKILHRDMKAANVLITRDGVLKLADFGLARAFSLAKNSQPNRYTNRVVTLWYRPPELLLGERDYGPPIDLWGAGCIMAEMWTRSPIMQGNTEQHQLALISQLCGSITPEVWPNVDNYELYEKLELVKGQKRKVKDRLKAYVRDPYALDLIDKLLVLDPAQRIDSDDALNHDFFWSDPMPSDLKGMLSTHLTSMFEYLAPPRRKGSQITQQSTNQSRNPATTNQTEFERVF
Sequence of CDK9/Cyclin T1 (O60563 whole entry partner): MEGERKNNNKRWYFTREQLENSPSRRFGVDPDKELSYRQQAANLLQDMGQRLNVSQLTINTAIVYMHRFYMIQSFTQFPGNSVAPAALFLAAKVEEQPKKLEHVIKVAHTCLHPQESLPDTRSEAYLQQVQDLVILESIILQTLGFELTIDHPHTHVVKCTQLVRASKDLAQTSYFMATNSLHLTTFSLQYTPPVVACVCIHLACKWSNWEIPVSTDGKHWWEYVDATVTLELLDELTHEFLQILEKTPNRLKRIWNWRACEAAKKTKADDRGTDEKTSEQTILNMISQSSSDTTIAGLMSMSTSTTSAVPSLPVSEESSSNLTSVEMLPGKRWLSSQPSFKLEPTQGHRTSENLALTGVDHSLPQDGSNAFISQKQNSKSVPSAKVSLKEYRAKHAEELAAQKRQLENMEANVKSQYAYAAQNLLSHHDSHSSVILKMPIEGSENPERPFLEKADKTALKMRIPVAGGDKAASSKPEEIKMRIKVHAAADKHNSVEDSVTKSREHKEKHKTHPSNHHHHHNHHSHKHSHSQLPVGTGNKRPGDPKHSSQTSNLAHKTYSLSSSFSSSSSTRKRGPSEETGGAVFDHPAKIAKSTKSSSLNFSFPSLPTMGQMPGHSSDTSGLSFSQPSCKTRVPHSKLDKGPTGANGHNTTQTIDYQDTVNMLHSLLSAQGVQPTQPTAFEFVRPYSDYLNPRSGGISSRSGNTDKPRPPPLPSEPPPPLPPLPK

| SMILES | half-life at 1 μM (in vitro [1]) [min] | IC50 [2] [nM] | half-life at 1 μM (in vitro [3]) [min] | IC50 [4] [nM] | IC50 (CDK9/Cyclin T1) [µM] |
| --- | --- | --- | --- | --- | --- |
| [2H]C1([2H])CN(S(C)(=O)=O)CC([2H])([2H])C1Nc1ncc2ccc(=O)n([C@@H]3CCC[C@@]3(C)O)c2n1 [Comp. 61, (−)-8-((1R,2R)-2-hydroxy-2-methylcyclopentyl)-2-((1-(methylsulfonyl)piperidin-4-yl-3,3,5,5-d4)amino)pyrido[2,3-d]pyrimidin-7(8H)-one] | 578 | 69.2 | 23.5 | – | – |
| [2H]C([2H])([2H])c1cc2cnc(NC3CCN(S(C)(=O)=O)CC3)nc2n(C2CCCC2(C)O)c1=O (racemic) [Comp. 11, (±)-8-(2-hydroxy-2-methylcyclopentyl)-6-(methyl-d3)-2-((1-(methylsulfonyl)piperidin-4-yl)amino)pyrido[2,3-d]pyrimidin-7(8H)-one] | – | 28.6 | – | 21.3 | – |
| C[C@@]1(O)CCC[C@H]1n1c(=O)ccc2cnc(NC3CCN(S(C)(=O)=O)CC3)nc21 [Comp. 6, (−)-8-(2-hydroxy-2-methylcyclopentyl)-2-((1-(methylsulfonyl)piperidin-4-yl)amino)pyrido[2,3-d]pyrimidin-7(8H)-one, reference compound] | 693 | 56.1 | 24.2 | 39.2 | 6.45 |
| Cc1cc2cnc(NC3CCN(S(C)(=O)=O)CC3)nc2n([C@@H]2CCC[C@@]2(C)O)c1=O (racemic) [Comp. 3, (±)-8-(2-hydroxy-2-methylcyclopentyl)-6-methyl-2-((1-(methylsulfonyl)piperidin-4-yl)amino)pyrido[2,3-d]pyrimidin-7(8H)-one, reference compound] | – | 53.4 | – | 38.5 | – |
| [2H]C1(Nc2ncc3ccc(=O)n([C@@H]4CCC[C@@]4(C)O)c3n2)CCN(S(C)(=O)=O)CC1 [Comp. 47, (−)-8-((1R,2R)-2-hydroxy-2-methylcyclopentyl)-2-((1-(methylsulfonyl)piperidin-4-yl-4-d)amino)pyrido[2,3-d]pyrimidin-7(8H)-one] | 990 | – | 24.5 | – | – |
| CCN1CCN(Cc2ccc(Nc3ncc(F)c(-c4cc(F)c5nc(C)n(C(C)C)c5c4)n3)nc2)CC1 [LY2835219] | – | 161 | – | 4370 | – |
| C[C@@]1(O)CCC[C@H]1n1c(=O)ccc2cnc(NC3CCN(S(C)(=O)=O)CC3)nc21 (racemic) [Comp. 1, (±)-8-(2-hydroxy-2-methylcyclopentyl)-2-((1-(methylsulfonyl)piperidin-4-yl)amino)pyrido[2,3-d]pyrimidin-7(8H)-one, reference compound] | – | 86.5 | – | 54.3 | – |
| [2H]C(F)(F)c1cc2cnc(NC3CCN(S(C)(=O)=O)CC3)nc2n(C2CCCC2(C)O)c1=O (racemic) [Comp. 20, (±)-6-(difluoromethyl-d)-8-(2-hydroxy-2-methylcyclopentyl)-2-((1-(methylsulfonyl)piperidin-4-yl)amino)pyrido[2,3-d]pyrimidin-7(8H)-one] | – | 125 | – | 104 | 6 |
